# Results: ChEMBL document CHEMBL5036349, “Development of potent dual PDK1/AurA kinase inhibitors for cancer therapy: Lead-optimization, structural insights, and ADME-Tox profile” (Eur J Med Chem, 2021)
# Experiments:
# [1] = biological target: Aurora kinase B (Homo sapiens) (UniProt Q96GD4); test: Inhibition of Aurora B kinase (unknown origin) at 10 uM in presence of ATP incubated for 30 min followed by addition of kinase glo-reagent measured after 20 mins by Luminescence based plate reader assay relative to control; conditions: time 50.0 min
# Aurora kinase A = biological target: T1, Aurora kinase A (Homo sapiens, UniProt O14965); test: Inhibition of recombinant full length human His-tagged AURA expressed in Baculovirus expression system in presence of ATP measured by […]
# T1 sequence (O14965 whole entry): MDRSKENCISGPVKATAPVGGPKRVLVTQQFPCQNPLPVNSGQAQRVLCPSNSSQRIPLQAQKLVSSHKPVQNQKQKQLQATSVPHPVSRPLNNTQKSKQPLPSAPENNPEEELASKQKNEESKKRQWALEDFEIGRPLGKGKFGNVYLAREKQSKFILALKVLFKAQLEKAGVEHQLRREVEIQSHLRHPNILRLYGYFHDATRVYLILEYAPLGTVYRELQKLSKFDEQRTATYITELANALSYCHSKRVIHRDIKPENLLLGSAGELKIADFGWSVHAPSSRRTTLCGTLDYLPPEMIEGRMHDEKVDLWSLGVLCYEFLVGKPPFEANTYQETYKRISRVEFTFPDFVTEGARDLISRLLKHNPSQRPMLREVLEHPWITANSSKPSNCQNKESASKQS
# [2] = biological target: Histone deacetylase 4 (Homo sapiens) (UniProt P56524); test: Inhibition on human recombinant HDAC4 at 10 uM measured after 20 min by luminescence glo assay
# [3] = biological target: T2, Histone deacetylase 8 (Homo sapiens) (UniProt Q9BY41); test: Inhibition on human recombinant HDAC8 at 10 uM measured after 20 min by luminescence glo assay
# T2 sequence (whole entry): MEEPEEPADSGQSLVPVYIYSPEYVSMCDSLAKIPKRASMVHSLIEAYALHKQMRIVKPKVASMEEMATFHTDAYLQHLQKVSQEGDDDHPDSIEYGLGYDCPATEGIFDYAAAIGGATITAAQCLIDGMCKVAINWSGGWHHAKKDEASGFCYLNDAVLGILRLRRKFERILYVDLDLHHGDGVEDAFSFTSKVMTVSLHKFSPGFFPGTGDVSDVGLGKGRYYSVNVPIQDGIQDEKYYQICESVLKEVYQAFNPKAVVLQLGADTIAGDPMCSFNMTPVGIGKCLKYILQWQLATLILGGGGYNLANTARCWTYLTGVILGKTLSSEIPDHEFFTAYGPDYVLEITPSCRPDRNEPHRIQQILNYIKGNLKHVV
# [4] = biological target: Histone deacetylase 9 (Homo sapiens) (UniProt Q9UKV0); test: Inhibition on human recombinant HDAC9 at 10 uM measured after 20 min by luminescence glo assay
# [5] = Cytotoxicity against hTERT cells at 10 uM measured after 24 to 48 hrs by Cell-titer glo assay relative to control; assay type: cell-based; conditions: human, time 24-48 hrs
# [6] = biological target: T3, Protein deacetylase HDAC6 (Homo sapiens) (UniProt Q9UBN7); test: Inhibition on human recombinant HDAC6 at 10 uM measured after 20 min by luminescence glo assay
# T3 sequence (whole entry): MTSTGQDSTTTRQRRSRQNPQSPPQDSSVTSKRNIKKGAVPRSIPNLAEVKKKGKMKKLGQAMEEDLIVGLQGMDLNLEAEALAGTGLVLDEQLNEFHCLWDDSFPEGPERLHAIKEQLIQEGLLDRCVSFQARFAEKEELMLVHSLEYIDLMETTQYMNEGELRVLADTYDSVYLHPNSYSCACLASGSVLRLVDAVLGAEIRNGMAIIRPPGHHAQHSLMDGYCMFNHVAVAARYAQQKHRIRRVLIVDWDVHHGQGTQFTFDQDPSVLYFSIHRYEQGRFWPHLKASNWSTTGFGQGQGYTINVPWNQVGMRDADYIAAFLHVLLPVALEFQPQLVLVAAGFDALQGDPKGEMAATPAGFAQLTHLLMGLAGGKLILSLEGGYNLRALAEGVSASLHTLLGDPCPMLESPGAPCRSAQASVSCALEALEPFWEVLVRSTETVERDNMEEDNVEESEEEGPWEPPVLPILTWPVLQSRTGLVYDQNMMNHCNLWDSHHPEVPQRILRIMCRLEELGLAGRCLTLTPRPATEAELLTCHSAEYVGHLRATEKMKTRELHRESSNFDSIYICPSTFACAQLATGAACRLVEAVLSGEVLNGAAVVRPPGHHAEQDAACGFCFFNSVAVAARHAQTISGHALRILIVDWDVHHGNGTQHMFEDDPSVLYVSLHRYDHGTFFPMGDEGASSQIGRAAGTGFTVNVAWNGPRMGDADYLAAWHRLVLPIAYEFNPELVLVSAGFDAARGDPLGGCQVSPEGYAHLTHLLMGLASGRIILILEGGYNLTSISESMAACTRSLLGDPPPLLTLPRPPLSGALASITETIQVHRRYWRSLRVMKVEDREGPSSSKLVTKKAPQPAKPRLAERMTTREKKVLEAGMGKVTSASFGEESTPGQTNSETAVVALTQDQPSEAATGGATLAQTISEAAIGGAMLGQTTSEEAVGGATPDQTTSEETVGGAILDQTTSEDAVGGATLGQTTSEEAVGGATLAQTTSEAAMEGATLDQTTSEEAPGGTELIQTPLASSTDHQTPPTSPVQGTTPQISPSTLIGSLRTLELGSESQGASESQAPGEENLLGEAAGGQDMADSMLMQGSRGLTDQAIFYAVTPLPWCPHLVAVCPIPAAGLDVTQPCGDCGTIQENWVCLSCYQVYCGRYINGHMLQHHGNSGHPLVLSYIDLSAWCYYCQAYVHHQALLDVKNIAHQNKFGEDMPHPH
# [7] = biological target: T4, NAD-dependent protein deacetylase sirtuin-7 (Homo sapiens) (UniProt Q9NRC8); test: Inhibition of human recombinant SIRT7 at 10 uM incubated for 20 mins followed by mixing and measure after 30 mins by Luminescence assay relative to control; conditions: time 50.0 min
# T4 sequence (whole entry): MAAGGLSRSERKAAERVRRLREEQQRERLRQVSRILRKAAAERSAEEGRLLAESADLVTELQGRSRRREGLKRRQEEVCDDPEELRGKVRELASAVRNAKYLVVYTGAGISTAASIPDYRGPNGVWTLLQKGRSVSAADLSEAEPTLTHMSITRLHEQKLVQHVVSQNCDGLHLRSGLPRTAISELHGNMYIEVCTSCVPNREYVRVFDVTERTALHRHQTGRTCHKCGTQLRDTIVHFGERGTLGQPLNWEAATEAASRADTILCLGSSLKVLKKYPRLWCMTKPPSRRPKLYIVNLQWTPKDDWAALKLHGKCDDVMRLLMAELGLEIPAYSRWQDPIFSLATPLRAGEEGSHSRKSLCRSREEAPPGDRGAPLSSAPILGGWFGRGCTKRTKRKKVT
# HEK293 = test: Cytotoxicity against HEK293 cells at 10 uM measured after 24 to 48 hrs by Cell-titer glo assay relative to control; assay type: cell-based; conditions: human, hek293, 10 µM, time 24-48 hrs
# [8] = biological target: 3',5'-cyclic-AMP phosphodiesterase 4C (Homo sapiens) (UniProt Q08493); test: Inhibition of PDE4C1 (unknown origin) at 10 uM incubated for 60 mins followed by addition of binding agent and measured after 20 mins by Fluorescence Polarization assay relative to control; conditions: time 80.0 min
# [9] = biological target: 3-phosphoinositide-dependent protein kinase 1 (Homo sapiens) (UniProt O15530); test: Inhibition of recombinant full length human His-tagged PDK1 expressed in Baculovirus expression system in presence of ATP measured by […]
# TC-32 [10] = test: Cytotoxicity against human TC-32 cells measured after 72 hrs by MTT assay; assay type: functional, cell-based; conditions: TC-32, 72 h
# [11] = Cytotoxicity against human TC71 cells measured after 72 hrs by MTT assay; assay type: functional, cell-based; conditions: TC-71, 72 h
# IGROV-1 = test: Cytotoxicity against human IGROV-1 cells measured after 72 hrs by MTT assay; assay type: functional, cell-based; conditions: IGROV-1, 72 h
# Rec1 = test: Cytotoxicity against human REC1 cells measured after 72 hrs by MTT assay; assay type: functional, cell-based; conditions: Rec1, 72 h
# 786-0 = test: Cytotoxicity against human 786-0 cells measured after 72 hrs by MTT assay; assay type: functional, cell-based; conditions: 786-0, 72 h
# [12] = Cytotoxicity against human 6647 cells measured after 72 hrs by MTT assay; assay type: functional, cell-based; conditions: Homo sapiens, 6647, 72 h
# PC-3 = test: Cytotoxicity against human PC-3 cells measured after 72 hrs by MTT assay; assay type: functional, cell-based; conditions: PC-3, 72 h
# HCT-116 = test: Cytotoxicity against human HCT-116 cells measured after 72 hrs by MTT assay; assay type: functional, cell-based; conditions: HCT-116, 72 h
# NCI-H82 = test: Cytotoxicity against human NCI-H82 cells measured after 72 hrs by MTT assay; assay type: functional, cell-based; conditions: NCI-H82, 72 h
# TC-32 [13] = test: Cytotoxicity against human TC-32 cells at 30 uM assessed as cell proliferation rate measured after 72 hrs by MTT assay relative to control; assay type: functional
# CAKI-1 = test: Cytotoxicity against human CAKI-1 cells measured after 72 hrs by MTT assay; assay type: functional, cell-based; conditions: CAKI-1, 72 h
# A673 = test: Cytotoxicity against human A673 cells measured after 72 hrs by MTT assay; assay type: functional, cell-based; conditions: A673, 72 h
# MCF7 = test: Cytotoxicity against human MCF7 cells measured after 72 hrs by MTT assay; assay type: functional, cell-based; conditions: MCF7, 72 h
# NCI-H69 [14] = test: Cytotoxicity against human NCI-H69 cells measured after 72 hrs by MTT assay; assay type: functional, cell-based; conditions: NCI-H69, 72 h
# NCI-H69 [15] = test: Cytotoxicity against human NCI-H69 cells at 30 uM assessed as cell proliferation rate measured after 72 hrs by MTT assay relative to control; assay type: functional
# SK-N-MC = test: Cytotoxicity against human SK-N-MC cells measured after 72 hrs by MTT assay; assay type: functional, cell-based
# [16] = biological target: {'v': 'hERG (KCNH2)', 'o': 'p', 'q': 'Inhibition of human ERG at 10 uM'} (Homo sapiens, UniProt Q12809); test: Inhibition of human ERG at 10 uM relative to control
# Sequence of {'v': 'hERG (KCNH2)', 'o': 'p', 'q': 'Inhibition of human ERG at 10 uM'} (Q12809 whole entry): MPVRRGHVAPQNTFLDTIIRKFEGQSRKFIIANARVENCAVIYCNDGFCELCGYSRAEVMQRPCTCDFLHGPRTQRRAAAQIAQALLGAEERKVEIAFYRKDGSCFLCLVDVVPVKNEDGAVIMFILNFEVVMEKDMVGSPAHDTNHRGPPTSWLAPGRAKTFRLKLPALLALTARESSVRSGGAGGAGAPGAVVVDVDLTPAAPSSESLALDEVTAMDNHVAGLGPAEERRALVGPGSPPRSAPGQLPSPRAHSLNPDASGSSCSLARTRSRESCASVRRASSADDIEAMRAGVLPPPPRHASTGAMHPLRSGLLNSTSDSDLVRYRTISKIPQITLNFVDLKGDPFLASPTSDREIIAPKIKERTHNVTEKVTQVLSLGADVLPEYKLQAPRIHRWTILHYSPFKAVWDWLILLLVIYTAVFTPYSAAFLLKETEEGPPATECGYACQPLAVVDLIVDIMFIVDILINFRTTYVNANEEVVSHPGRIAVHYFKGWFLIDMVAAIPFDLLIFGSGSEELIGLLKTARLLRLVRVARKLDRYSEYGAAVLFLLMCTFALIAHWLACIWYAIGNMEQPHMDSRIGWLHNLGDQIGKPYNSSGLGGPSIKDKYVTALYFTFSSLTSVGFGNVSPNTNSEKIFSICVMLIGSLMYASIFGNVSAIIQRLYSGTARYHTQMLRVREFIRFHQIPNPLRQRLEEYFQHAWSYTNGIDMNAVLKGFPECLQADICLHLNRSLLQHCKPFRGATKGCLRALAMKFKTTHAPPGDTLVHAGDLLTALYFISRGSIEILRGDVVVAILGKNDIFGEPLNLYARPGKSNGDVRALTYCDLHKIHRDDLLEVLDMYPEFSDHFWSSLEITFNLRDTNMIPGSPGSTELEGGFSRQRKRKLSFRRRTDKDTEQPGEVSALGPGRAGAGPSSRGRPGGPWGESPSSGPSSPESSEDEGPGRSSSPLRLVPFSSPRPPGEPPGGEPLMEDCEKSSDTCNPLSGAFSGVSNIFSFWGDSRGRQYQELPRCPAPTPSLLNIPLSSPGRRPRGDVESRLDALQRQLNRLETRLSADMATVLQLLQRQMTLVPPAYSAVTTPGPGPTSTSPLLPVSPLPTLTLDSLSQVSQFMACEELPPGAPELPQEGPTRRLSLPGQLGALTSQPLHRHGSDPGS
# Sequence of 3',5'-cyclic-AMP phosphodiesterase 4C (Homo sapiens) (Q08493 whole entry): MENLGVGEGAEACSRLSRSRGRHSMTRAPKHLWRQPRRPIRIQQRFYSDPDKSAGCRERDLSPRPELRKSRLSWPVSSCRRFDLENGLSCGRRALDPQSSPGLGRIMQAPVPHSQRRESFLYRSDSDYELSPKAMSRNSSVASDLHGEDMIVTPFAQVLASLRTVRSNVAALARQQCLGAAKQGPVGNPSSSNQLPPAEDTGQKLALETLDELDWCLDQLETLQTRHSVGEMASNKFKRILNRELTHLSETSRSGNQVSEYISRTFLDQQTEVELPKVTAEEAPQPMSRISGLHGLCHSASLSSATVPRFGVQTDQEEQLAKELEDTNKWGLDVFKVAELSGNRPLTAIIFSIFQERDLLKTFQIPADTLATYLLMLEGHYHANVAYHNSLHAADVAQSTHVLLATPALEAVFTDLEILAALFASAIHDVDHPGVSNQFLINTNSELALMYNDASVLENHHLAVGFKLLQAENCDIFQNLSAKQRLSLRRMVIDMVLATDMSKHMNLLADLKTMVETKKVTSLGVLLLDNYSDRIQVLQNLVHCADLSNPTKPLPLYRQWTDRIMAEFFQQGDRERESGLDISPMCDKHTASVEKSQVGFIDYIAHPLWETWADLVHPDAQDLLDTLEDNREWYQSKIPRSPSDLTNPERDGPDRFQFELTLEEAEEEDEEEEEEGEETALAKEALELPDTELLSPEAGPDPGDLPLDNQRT
# Sequence of Histone deacetylase 9 (Homo sapiens) (Q9UKV0 whole entry): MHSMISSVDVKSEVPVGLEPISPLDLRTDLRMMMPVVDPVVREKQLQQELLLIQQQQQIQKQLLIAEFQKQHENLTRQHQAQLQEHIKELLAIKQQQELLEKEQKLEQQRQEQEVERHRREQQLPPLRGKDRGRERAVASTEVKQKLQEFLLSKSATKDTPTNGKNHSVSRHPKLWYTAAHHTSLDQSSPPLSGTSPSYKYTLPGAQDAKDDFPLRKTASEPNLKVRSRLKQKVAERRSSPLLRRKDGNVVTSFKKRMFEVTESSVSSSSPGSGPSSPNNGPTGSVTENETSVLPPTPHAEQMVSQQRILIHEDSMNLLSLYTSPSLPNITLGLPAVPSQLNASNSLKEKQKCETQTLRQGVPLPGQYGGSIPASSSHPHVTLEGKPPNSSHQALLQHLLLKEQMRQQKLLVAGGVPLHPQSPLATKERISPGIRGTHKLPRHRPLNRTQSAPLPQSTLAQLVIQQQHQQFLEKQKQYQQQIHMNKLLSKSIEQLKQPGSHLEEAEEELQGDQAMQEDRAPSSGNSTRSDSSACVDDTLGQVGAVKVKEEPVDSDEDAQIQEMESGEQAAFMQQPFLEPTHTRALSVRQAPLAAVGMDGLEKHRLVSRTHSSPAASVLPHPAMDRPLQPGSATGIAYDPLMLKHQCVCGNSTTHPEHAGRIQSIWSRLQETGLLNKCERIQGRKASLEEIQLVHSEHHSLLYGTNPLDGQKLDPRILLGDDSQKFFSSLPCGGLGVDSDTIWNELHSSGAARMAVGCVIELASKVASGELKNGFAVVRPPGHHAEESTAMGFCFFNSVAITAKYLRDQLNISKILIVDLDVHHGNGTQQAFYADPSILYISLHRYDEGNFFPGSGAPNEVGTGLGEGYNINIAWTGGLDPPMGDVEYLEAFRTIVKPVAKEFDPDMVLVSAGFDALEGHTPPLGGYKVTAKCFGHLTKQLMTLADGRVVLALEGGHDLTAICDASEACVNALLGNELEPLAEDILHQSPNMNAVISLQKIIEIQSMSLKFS
# Sequence of Histone deacetylase 4 (Homo sapiens) (P56524 whole entry): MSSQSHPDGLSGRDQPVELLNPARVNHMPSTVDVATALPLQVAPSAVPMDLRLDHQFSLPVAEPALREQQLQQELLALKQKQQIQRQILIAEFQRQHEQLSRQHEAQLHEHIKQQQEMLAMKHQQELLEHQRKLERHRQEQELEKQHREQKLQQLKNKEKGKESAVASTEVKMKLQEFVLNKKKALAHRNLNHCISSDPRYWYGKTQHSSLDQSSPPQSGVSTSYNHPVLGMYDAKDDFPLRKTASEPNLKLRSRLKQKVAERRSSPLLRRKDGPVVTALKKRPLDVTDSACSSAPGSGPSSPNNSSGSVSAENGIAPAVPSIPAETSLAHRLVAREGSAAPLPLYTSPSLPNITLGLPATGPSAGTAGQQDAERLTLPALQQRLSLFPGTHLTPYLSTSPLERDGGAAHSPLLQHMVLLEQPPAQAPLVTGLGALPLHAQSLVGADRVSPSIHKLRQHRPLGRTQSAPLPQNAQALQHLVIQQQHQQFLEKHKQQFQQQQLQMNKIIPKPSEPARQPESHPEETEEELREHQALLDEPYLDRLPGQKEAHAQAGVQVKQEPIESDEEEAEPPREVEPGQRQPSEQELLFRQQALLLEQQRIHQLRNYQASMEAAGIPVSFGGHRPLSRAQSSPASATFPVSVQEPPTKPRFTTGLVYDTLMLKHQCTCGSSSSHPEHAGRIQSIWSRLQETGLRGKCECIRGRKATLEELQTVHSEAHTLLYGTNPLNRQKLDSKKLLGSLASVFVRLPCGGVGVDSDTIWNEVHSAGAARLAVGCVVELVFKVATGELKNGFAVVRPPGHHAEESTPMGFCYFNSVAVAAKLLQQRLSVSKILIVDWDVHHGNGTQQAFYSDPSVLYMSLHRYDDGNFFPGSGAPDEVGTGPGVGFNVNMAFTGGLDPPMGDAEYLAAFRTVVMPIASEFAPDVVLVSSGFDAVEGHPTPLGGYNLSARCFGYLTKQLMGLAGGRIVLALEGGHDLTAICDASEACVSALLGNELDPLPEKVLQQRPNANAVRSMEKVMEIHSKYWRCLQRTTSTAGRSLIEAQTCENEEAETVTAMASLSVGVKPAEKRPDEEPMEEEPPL
# Sequence of Aurora kinase B (Homo sapiens) (Q96GD4 whole entry): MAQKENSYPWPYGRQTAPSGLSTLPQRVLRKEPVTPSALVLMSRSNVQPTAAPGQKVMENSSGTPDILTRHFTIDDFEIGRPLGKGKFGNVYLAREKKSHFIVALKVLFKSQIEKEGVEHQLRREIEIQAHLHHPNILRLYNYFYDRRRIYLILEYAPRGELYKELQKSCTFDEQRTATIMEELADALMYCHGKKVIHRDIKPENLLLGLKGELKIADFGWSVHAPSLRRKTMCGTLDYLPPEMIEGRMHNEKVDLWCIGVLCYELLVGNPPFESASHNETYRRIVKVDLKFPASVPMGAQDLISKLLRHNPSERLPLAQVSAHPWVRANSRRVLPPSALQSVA
smiles,measurement,setting,value
O=C1Nc2ccc(NC(=O)c3cccc(NC(=O)c4cccn(Cc5ccc(F)c(F)c5)c4=O)c3)cc2/C1=C/c1cnc[nH]1,inhibition,[1],< 20%
same,IC50,Aurora kinase A; read-out: IC50,> 10 µM
same,inhibition,[2],< 30%
same,inhibition,[3],< 30%
same,inhibition,[4],< 30%
same,Activity,[5],< 25%
same,inhibition,[6],< 30%
same,inhibition,[7],< 30%
same,Activity,HEK293,< 25%
same,inhibition,[8],< 30%
O=C(CCNC(=O)c1cccn(Cc2ccc(F)c(F)c2)c1=O)Nc1ccc2c(c1)/C(=C\c1ccc(F)cc1)C(=O)N2,IC50,Aurora kinase A,Not Active
same,IC50,[9],Not Active
CCN(C)CC(=O)c1c[nH]c2ccc(NC(=O)[C@H](NC(=O)c3cccn(Cc4ccc(F)c(F)c4)c3=O)c3ccccc3)cc12,IC50,Aurora kinase A,Not Active
same,IC50,[9],Not Active
O=C(CCNC(=O)c1cccn(Cc2ccc(F)c(F)c2)c1=O)Nc1ccc2c(c1)/C(=C/c1ncc[nH]1)C(=O)N2,IC50,Aurora kinase A,Not Active
O=C(N[C@@H](COc1ccc2[nH]c(=O)[nH]c2c1)c1ccccc1)c1cccn(Cc2ccc(F)c(F)c2)c1=O,IC50,TC-32 [10],13.9 µM
same,IC50,[11],> 30 µM
same,IC50,IGROV-1,> 30 µM
same,IC50,Rec1,> 30 µM
same,IC50,786-0,> 30 µM
same,IC50,[12],> 30 µM
same,IC50,PC-3,> 30 µM
same,IC50,HCT-116,> 30 µM
same,IC50,NCI-H82,> 30 µM
same,Emax at 30 µM,TC-32 [13],80%
same,IC50,CAKI-1,> 30 µM
same,IC50,A673,> 30 µM
same,IC50,MCF7,> 30 µM
same,IC50,NCI-H69 [14],13.9 µM
same,Emax at 30 µM,NCI-H69 [15],80%
same,IC50,SK-N-MC,> 30 µM
O=C(CCCNC(=O)c1cccn(Cc2ccc(F)c(F)c2)c1=O)Nc1ccc2c(c1)C(=Cc1cccs1)C(=O)N2,IC50,Aurora kinase A,Not Active
O=C(CCCNC(=O)c1cccn(Cc2ccc(F)c(F)c2)c1=O)Nc1ccc2c(c1)/C(=C/c1cnc[nH]1)C(=O)N2,inhibition,[1],< 20%
same,inhibition,[2],< 30%
same,inhibition,[3],< 30%
same,inhibition,[4],< 30%
same,Activity,[5],< 25%
same,inhibition,[6],< 30%
same,inhibition at 10 µM,[16],53%
same,inhibition,[7],< 30%
same,Activity,HEK293,< 25%
same,inhibition,[8],< 30%
CN1CCN(CC(=O)c2c[nH]c3ccc(NC(=O)[C@H](NC(=O)c4cccn(Cc5ccc(F)c(F)c5)c4=O)c4ccccc4)cc23)CC1,IC50,Aurora kinase A,Not Active
same,IC50,[9],Not Active
O=C(CCNC(=O)c1cccn(Cc2ccc(F)c(F)c2)c1=O)Nc1ccc2c(c1)C(=Cc1cccs1)C(=O)N2,IC50,Aurora kinase A,Not Active
O=C1Nc2ccc(NC(=O)c3cccc(NC(=O)c4cccn(Cc5ccc(F)c(F)c5)c4=O)c3)cc2C1=Cc1cccs1,IC50,Aurora kinase A,Not Active
same,IC50,[9],Not Active
Cc1c(Br)cc(C(=O)NCC(=O)Nc2ccc3c(c2)/C(=C/c2cnc[nH]2)C(=O)N3)c(=O)n1Cc1ccc(F)c(F)c1,inhibition,[1],< 20%
same,IC50,Aurora kinase A; read-out: IC50,> 10 µM
same,inhibition,[2],< 30%
same,inhibition,[3],< 30%
same,inhibition,[4],< 30%
same,Activity,[5],< 25%
same,inhibition,[6],< 30%
same,inhibition,[7],< 30%
same,Activity,HEK293,< 25%
same,inhibition,[8],< 30%
